According to US11485744B2, “High penetration prodrug compositions of antimicrobials and antimicrobial-related compounds” (priority 2009, dated 2022):

Tests used:
[1] = In vitro penetration across isolated human skin in modified Franz cells; details: for In vitro Penetration Rate (apparent flux), HPPs: pH 7.4
K. pneumonlae = test: MIC against K. pneumonlae; assay type: cell-based; details: Table 6b; combinations antibiotic/inhibitor
E. cloacae = test: MIC against E. cloacae; assay type: cell-based; details: Enterobacter cloacae; Table 6b; combinations antibiotic/inhibitor
B. fragilis = test: MIC against B. fragilis; assay type: cell-based; details: Bacteroides fragilis; Table 6b; combinations antibiotic/inhibitor
[2] = Conversion of HPPs to parent drugs in human plasma (half life); assay type: in vitro ADME; details: human, plasma
Procedure: HPPs of antimicrobials or antimicrobial-related compounds converted to the parent antimicrobials or antimicrobial-related compounds quickly in good yield in human plasma.
A HPP of antimicrobial or antimicrobial-related compound (10 mg) was dissolved in 0.1 ml of 0.2M pH 7.4 phosphate buffer. 1 ml of human plasma, preheated to 37° C., was added into the mixture. The mixture was kept in a water bath at 37° C., and at every 2 min intervals 0.2 ml of samples were withdrawn and added to 0.4 ml of methanol to precipitate the plasma protein.

[3] = test system: methicillin-resistant Staphylococcus aureus (MRSA); test: MIC against MRSA; assay type: cell-based; details: Staphylococcus aureus, MRSA; Table 6a; read-out: MIC
Aspergillus nidulans = test: Antifungal MIC in vitro; assay type: cell-based
[4] = test system: Trichophyton mentagrophytes; test: Antifungal MIC in vitro; assay type: cell-based
Microsporum canis = test: Antifungal MIC in vitro; assay type: cell-based
Candida albicans = test: Antifungal MIC in vitro; assay type: cell-based
Aspergillus niger = test: Antifungal MIC in vitro; assay type: cell-based
Aspergillus tereus = test: Antifungal MIC in vitro; assay type: cell-based
[5] = test system: Penicillium carylophilium; test: Antifungal MIC in vitro; assay type: cell-based
Fusarium oxisporum = test: Antifungal MIC in vitro; assay type: cell-based
Fusarium aquaductum = test: Antifungal MIC in vitro; assay type: cell-based
Aspergillus giganteus = test: Antifungal MIC in vitro; assay type: cell-based
[6] = Clinical cure of cow mastitis, topical treatment; assay type: in vivo, lactating dairy cows; details: cows, 500 mg in 10 ml pH 7.4 phosphate buffer sprayed on skin of udder twice per day
Procedure: (§1) 90 lactating dairy cows were recruited. Bacteriological cure was considered to have been achieved if the samples taken from the affected quarter on day 17 and day 22 were free of the bacterial species isolated in the pretreatment sample. Clinical cure was defined as the disappearance of clinical signs of disease which were observed on day 1 before treatment, in other words by the return to normal feed intake, rectal temperature<39.0° C., good general condition, absence of udder edema, normal milk appearance, and normal milk yield.

[7] = test system: Coagulase-negative staphylococci; test: Bacteriological cure of cow mastitis, topical treatment; assay type: in vivo; details: cows, day 22, topical 500 mg twice per day
Procedure: as §1

E. coli = test: as above; assay type: in vivo; details: cows, day 22, topical 500 mg twice per day
Procedure: as §1

Enterobacteriaceae = test: as above; assay type: in vivo; details: cows, day 22, topical 500 mg twice per day
Procedure: as §1

Staphylococcus aureus = test: as above; assay type: in vivo; details: cows, day 22, topical 500 mg twice per day
Procedure: as §1

Streptococcus uberis = test: as above; assay type: in vivo; details: cows, day 22, topical 500 mg twice per day
Procedure: as §1

Structure (SMILES) | MIC (K. pneumonlae) [µg/mL] | MIC (E. cloacae) [µg/mL] | MIC (B. fragilis) [µg/mL] | Clinical Cure Rate, Day 3 [6] [%] | Clinical Cure Rate, Day 8 [6] [%] | Clinical Cure Rate, Day 15 [6] [%] | Clinical Cure Rate, Day 22 [6] [%] | Bacteriological cure rate, Coagulase-negative staphylococci [7] [%] | Bacteriological cure, No. cured, Coagulase-negative staphylococci [7] | Bacteriological cure rate, E. coli (E. coli) [%] | Bacteriological cure, No. cured, E. coli (E. coli) | Bacteriological cure rate, Enterobacteriaceae (Enterobacteriaceae) [%] | Bacteriological cure, No. cured, Enterobacteriaceae (Enterobacteriaceae) | Bacteriological cure rate, Staphylococcus aureus (Staphylococcus aureus) [%] | Bacteriological cure, No. cured, Staphylococcus aureus (Staphylococcus aureus) | Bacteriological cure rate, Streptococcus uberis (Streptococcus uberis) [%] | Bacteriological cure, No. cured, Streptococcus uberis (Streptococcus uberis) | other results
CC1(C)S[C@@H]2[C@H](NC(=O)[C@H](N)c3ccccc3)C(=O)N2[C@H]1C(=O)O [Ampicillin] | 0.3 | 5 | 68 | – | – | – | – | – | – | – | – | – | – | – | – | – | – | In vitro Penetration Rate (apparent flux), Parent compounds ([1]; Table 1a, isolated human skin, Franz cells, 10% in 0.2 M phosphate buffer pH 7.4, n=5): <0.015 mg/cm^2/h
CO/N=C(\C(=O)N[C@@H]1C(=O)N2C(C(=O)O)=C(CSc3nc(=O)c(=O)[nH]n3C)CS[C@H]12)c1csc(N)n1 [Ceftriaxone] | 0.5 | 1 | 8 | – | – | – | – | – | – | – | – | – | – | – | – | – | – | –
CCN(CC)CCOC(=O)C1=CCSC2C(NC(=O)C(=NOC)c3csc(NC(C)=O)n3)C(=O)N12.Cl (stereo not drawn) [ceftizoxime-DEE, 7-[[(2-acetylamino-4-thiazolyl)(methoxyimino)acetyl]amino]-8-oxo-5-thia-1-azabicyclo[4.2.0]oct-2-ene-2-carboxylic acid 2-diethylaminoethyl ester hydrochloride] | – | – | – | 53 | 93 | 99 | 100 | 87.5 | 7 | 87.5 | 7 | 83.3 | 5 | 83 | 5 | 82 | 9 | In vitro Penetration Rate (apparent flux), HPPs ([1]; human, 10 %): 0.62 ± 0.05 mg/cm^2/h; half-life at 9.1 mg/mL ([2]; pH 7.4): 11 min; MIC [3]: 0.5 µg/mL; MIC (Aspergillus nidulans; Aspergillus nidulans, read-out: Minimum inhibitory concentration, Aspergillus nidulans): 4 µg/mL; MIC ([4]; Trichophyton mentagrophytes, read-out: Minimum inhibitory concentration, Trichophyton mentagrophytes): 9 µg/mL; MIC (Microsporum canis; Microsporum canis, read-out: Minimum inhibitory concentration, Microsporum canis): 2 µg/mL; MIC (Candida albicans; Candida albicans, read-out: Minimum inhibitory concentration, Candida albicans): 8 µg/mL; MIC (Aspergillus niger; Aspergillus niger, read-out: Minimum inhibitory concentration, Aspergillus niger): 4 µg/mL; MIC (Aspergillus tereus; Aspergillus, read-out: Minimum inhibitory concentration, Aspergillus tereus): 4 µg/mL; MIC ([5]; Penicillium, read-out: Minimum inhibitory concentration, Penicillium carylophilium): 3 µg/mL; MIC (Fusarium oxisporum; Fusarium, read-out: Minimum inhibitory concentration, Fusarium oxisporum): 5 µg/mL; MIC (Fusarium aquaductum; Fusarium, read-out: Minimum inhibitory concentration, Fusarium aquaductum): 3 µg/mL; MIC (Aspergillus giganteus; Aspergillus giganteus, read-out: Minimum inhibitory concentration, Aspergillus giganteus): 5 µg/mL
CCN(CC)CCOC(=O)C1N2C(=O)C(NC(=O)COc3ccccc3)C2SC1(C)C.Cl (stereo not drawn) [penicillin V-DEE, 6-phenoxyacetacetamidopenicillanic acid 2-diethylaminoethyl ester hydrochloride] | – | – | – | 50 | 90 | 93 | 97 | 78 | 7 | 87.5 | 7 | 85.7 | 6 | 67 | 4 | 80 | 8 | In vitro Penetration Rate (apparent flux), HPPs [1]: 0.72 ± 0.06 mg/cm^2/h; Half life of HPPs in plasma [2]: 8 ± 1 min; Minimum inhibitory concentration, Aspergillus nidulans (Aspergillus nidulans): 3 µg/mL; Minimum inhibitory concentration, Trichophyton mentagrophytes [4]: 12 µg/mL; Minimum inhibitory concentration, Microsporum canis (Microsporum canis): 2 µg/mL; Minimum inhibitory concentration, Candida albicans (Candida albicans): 7 µg/mL; Minimum inhibitory concentration, Aspergillus niger (Aspergillus niger): 3 µg/mL; Minimum inhibitory concentration, Aspergillus tereus (Aspergillus tereus): 2 µg/mL; Minimum inhibitory concentration, Penicillium carylophilium [5]: 2 µg/mL; Minimum inhibitory concentration, Fusarium oxisporum (Fusarium oxisporum): 3 µg/mL; Minimum inhibitory concentration, Fusarium aquaductum (Fusarium aquaductum): 2 µg/mL; Minimum inhibitory concentration, Aspergillus giganteus (Aspergillus giganteus): 3 µg/mL
